How the values were obtained:
[1] = system: RPTEC/TERT 1 human proximal tubule cells; assay: RNA sequencing of Ca/P treated RPTEC; assay type: cell-based; details: 50 μM, 5/7 mM Ca/P, 24 h
Excerpt: A) Heatmap and hierarchical clustering of relative gene expression levels determined by RNA sequencing. […] Weighted set coverage of gene ontology terms and their respective enrichment score for differentially expressed genes in the Ca/P vs. medium control group is plotted (all FDR≤0.05). D) Normalized count of gene transcripts (FPKM—fragments per kilobase of exon model per million reads mapped) involved in inflammatory responses, ECM composition, cell proliferation and tissue homeostasis of the different treatment groups is plotted (mean+SD, N=3).
Cells were cultured as described in the imaging assay and treated with a medium control (ProxUp basal medium containing 1/1 mM Ca/P), 5/7 mM Ca/P, 5/7 mM Ca/P in medium containing 50 µM (OEG2)2-IP4 or 50 µM (OEG2)2-IP4 in medium for 24 h. Total RNA was extracted using the RNeasy kit (Quiagen) according to the manufacturer's instructions. Three wells per sample group were prepared and total RNA extracted of those 3 wells pooled. mRNA was purified and RNAseq library was prepared using the TrueSeq RNA kit (Illumina). […] Reads were aligned to the human reference genome GRCh38.p10 using the STAR tool (https://github.com/alexdobin/STAR) and transcripts quantified using the Kallisto program (42). […] For comparison of expression levels of the selected genes, the fragments per kilobase of exon model per million reads mapped (FPKM) were used. […]

[2] = In-solution screening of CaP precipitation and aggregation in artificial renal tubular fluid (RTF); assay type: physicochemical; details: 9 mM phosphate, 8 mM calcium, 4 h
Procedure: Effects of (A) OEG2-IP5, (B) OEG11-IP5, (C) (OEG2)2-IP4, (D) (OEG11)2-IP4 and (E) OEG8-(IP5)2. on CaP precipitation in RTF spiked with 9 mM disodium phosphate and 8 mM calcium chloride were assessed by light microscopy followed by automated image analysis at t=4 h. Quantification of the total area covered with CaP precipitates/total area field of view (N=3, mean+SD, normalized to the control).
Effects of (A) OEG2-IP5, (B) OEG11-IP5, (C) (OEG2)2-IP4, (D) (OEG11)2-IP4 and (E) OEG8-(IP5)2. on CaP precipitation in RTF spiked with 9 mM disodium phosphate and 8 mM calcium chloride were assessed by light microscopy followed by automated image analysis at t=4 h. Quantification of the mean size of aggregates/field of view normalized to the ctrl (N=3, mean+SD, normalized to the control).
Overview table showing the minimal concentration of compound (FIG. 3 for the chemical structures) required to achieve complete inhibition of CaP precipitation (total area covered with crystals <10% of total area control); and minimal concentration required to prevent CaP crystal aggregation in the CaP screening assay (CaP aggregate size <50% of aggregate size control) (N=3).
An artificial renal tubular fluid (RTF) with a final composition of 0.05 mM oxalate, 0.005 mM sulphate, 408 mM sodium, 424 mM chloride, 0.26 mM potassium, 4 mM magnesium and 0.2 mM citrate in double distilled water was prepared according to a literature report (Fasano, J. M. et al., Kidney Int. 59, 169-178. DOI: 10.1046/j. 1523-1755.2001.00477.x, 2001). The solution was filtered with a 0.45-μm syringe filter. Twenty mM Bis-Tris buffer was added to the reported protocol to ensure pH stability throughout experiments and pH was set to 7.2. The artificial RTF was stored at room temperature for up to four months. Stock solutions of 0.25 M phosphate and 1 M calcium were prepared in double distilled water and were stored separately at −20° C.
Twenty-x final concentration phosphate, 20× final concentration calcium and 10× final concentration compound dilutions were prepared in RTF. Assay mixture consisting of 80% RTF, 10% compound dilution, 5% phosphate dilution and 5% calcium dilution was prepared in Eppendorf tubes as follows. RTF (320 μL) was mixed with 20 μL phosphate dilution (final concentration of 9 mM), 40 μL compound dilution and 20 μL calcium dilution (final concentration of 8 mM). The assay mixture was vortexed after adding each component and 380 μL of the mixture were immediately added to 8-well glass bottom slides and incubated for 4 hat RT. CaP precipitation was assessed using a Leica DM 6000B microscope (Leica Microsystems, Wetzlar, Germany) in brightfield mode. For quantification 3 wells/condition with 3-4 images/well were imaged with a 40× objective. The total area covered with CaP deposits in percentage of the field of view and the mean size of CaP aggregates were determined.
In a first step, the influence of selected IP6 analogues (FIG. 5) on CaP precipitation and growth was assessed in vitro using artificial renal tubular fluid (RTF) (Table 1). In a previous study, the inventors investigated CaP protein particle formation in serum. However, an important difference to cardiovascular calcification lies in the extremely low protein content of the renal tubular fluid vs. the high abundance of proteins in blood, which can stabilize amorphous particles. Two cut-offs were chosen for assessing efficacy. First, complete inhibition was defined as a >90% reduction of detected CaP precipitates compared to the control sample without compound. Second, inhibition of CaP aggregation was defined as a >50% reduction of the mean size of aggregates when compared to the control.

SMILES: COCCOCCO[C@@H]1C(OP(=O)(O)O)[C@H](OCCOCCOC)[C@@H](OP(=O)(O)O)C(OP(=O)(O)O)[C@H]1OP(=O)(O)O (some centres unmarked) [(OEG2)2-IP4]
- Ca/P-induced change in gene expression profile [1]: prevented
- effect on CaP precipitation/crystallization in words [2]: did not further increase the inhibitory activity

— US12076331B2, “Inositol derivatives for use in pathological crystallization” (ETH Zurich, priority 2015, dated 2024)
